Data reported in publication PMC10503797, “Allosteric modulator potentiates β2AR agonist–promoted bronchoprotection in asthma models” (The Journal of Clinical Investigation, 2023).
Converted amounts (≈) assume the structure as drawn. “And” between values parts separate entries of the source, which are not always exact repeats. Identical values can stand only once.

Columns and labels:
murine WT β2AR = target: T1, murine WT β2AR (Mus musculus, UniProt P18762); test: GloSensor cAMP, constitutive activity of overexpressed murine WT β2AR; format: cell-based
T1 construct: expressed in transfected cells; HEK293 GloSensor cells (cAMP assay)
T1 sequence (P18762 whole entry): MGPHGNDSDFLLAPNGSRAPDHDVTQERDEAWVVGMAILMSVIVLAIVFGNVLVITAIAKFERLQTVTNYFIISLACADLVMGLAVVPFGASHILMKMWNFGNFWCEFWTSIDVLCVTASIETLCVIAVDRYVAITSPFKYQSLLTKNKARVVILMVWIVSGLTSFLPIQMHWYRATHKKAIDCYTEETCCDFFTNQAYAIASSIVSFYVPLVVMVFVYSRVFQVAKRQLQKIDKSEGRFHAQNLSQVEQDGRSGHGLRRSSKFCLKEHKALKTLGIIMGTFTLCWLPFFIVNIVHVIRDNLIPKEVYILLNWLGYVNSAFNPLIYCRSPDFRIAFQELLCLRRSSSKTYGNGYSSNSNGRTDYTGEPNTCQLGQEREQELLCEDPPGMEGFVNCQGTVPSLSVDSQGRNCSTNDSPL

[1] = Solubility by formation of precipitates under the microscope; format: physicochemical
Protocol: *Solubility was determined by formation of precipitates observed under the microscope. **Cell […]
binds an intracellular region of the β2AR. ***Log P, Log of the Partition coefficient that was calculated using ChemDraw Professional (version 22.2, PerkinElmer). DMSO, dimethyl […]
(1 picture or pasted object on this page, not shown here)

guinea pig β2AR = guinea pig β2AR (Cavia porcellus, UniProt Q8K4Z4); test: GloSensor cAMP, constitutive activity of overexpressed guinea pig β2AR
guinea pig β2AR, sequence (Q8K4Z4 whole entry): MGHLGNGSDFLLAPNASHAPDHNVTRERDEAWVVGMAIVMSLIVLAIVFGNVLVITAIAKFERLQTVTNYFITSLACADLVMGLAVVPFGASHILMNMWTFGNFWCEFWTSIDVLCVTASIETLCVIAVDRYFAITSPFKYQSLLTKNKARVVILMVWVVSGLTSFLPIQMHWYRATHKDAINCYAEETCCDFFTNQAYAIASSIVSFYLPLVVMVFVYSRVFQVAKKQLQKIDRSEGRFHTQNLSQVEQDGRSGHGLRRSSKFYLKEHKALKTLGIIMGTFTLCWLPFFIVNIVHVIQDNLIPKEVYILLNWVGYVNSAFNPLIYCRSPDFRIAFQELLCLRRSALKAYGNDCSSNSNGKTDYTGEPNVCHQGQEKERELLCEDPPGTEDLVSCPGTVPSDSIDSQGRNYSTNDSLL

V133F mutant murine β2AR = V133F mutant murine β2AR (Mus musculus, UniProt P18762, V133F); test: 125I-CYP radioligand competition binding, V133F mutant murine β2AR; settings: V133F Cmpd-6
V133F mutant murine β2AR, sequence (P18762 whole entry V133F): as the sequence (P18762 whole entry) above, with V133F counted along it
Protocol: (§3) Statistical analyses were performed using 1-way ANOVA, repeated (related) measures with Tukey’s posthoc test.

C57BL/6J naive mice [2] = test: In vivo bronchodilation protocol, albuterol in methacholine-preconstricted airways (flexiVent); settings: Cmpd-6 10 mg/kg i.v.; methacholine […] + albuterol 1-30 μg/kg
Protocol: (§1) For the bronchoprotection protocol (A), bronchospasm was induced by i.v. administration of methacholine (25, 50, 100, 200, and 400 μg/kg). […] General Linear Model repeated measures ANOVA with Tukey’s posthoc test was used to determine the differences of airway responsiveness between DMSO- and Cmpd-6–treated conditions.
(§2) Airway hyperresponsiveness (AHR) was measured using the forced oscillation technique as described previously ([42]). […] For the bronchoprotection protocol, bronchospasm was induced by jugular vein i.v. administration of increasing doses of methacholine (25, 50, 100, 200, 400 μg/kg). […] Mice were ventilated with 100% oxygen at 150 breaths per minute, constant volume of 8 mL/kg and a 3 cm H2O positive end–expiratory pressure using a computer-controlled small animal ventilator (flexiVent, SCIREQ). The total lung impedance signal collected contained information about the resistance and elastance properties of the lung from which Newtonian resistance (Rn), a good indicator of the luminal diameter of the conducting airways, was calculated using the constant phase model. The heart rate data acquired using EKG electrodes was monitored to assess mouse viability and analgesia throughout the bronchoconstrictor protocols.

murine V133F mutant β2AR = target: T2, murine V133F mutant β2AR (Mus musculus, UniProt P18762, V133F); test: GloSensor cAMP, constitutive activity of overexpressed murine V133F mutant β2AR; format: cell-based; settings: Cmpd-6 at 5 μM, no orthosteric agonist
T2 construct: expressed in transfected cells; HEK293 GloSensor cells (cAMP assay)
T2 sequence (P18762 whole entry V133F): as the sequence (P18762 whole entry) above, with V133F counted along it

C57BL/6J naive mice [3] = test: In vivo bronchoprotection protocol, methacholine-induced airway constriction (flexiVent); set-up: Newtonian resistance (Rn): unit not given here; settings: for Newtonian resistance (Rn): Cmpd-6 10 mg/kg i.v., 10 mg/kg
Protocol: as §1, §2

WT murine β2AR = WT murine β2AR (Mus musculus, UniProt P18762); test: 125I-CYP radioligand competition binding, WT murine β2AR; settings: WT Cmpd-6
WT murine β2AR, sequence (P18762 whole entry): as the sequence (P18762 whole entry) above
Protocol: as §3

Solubility ([1]; Aqueous): 0.032 mM (≈ 0.0196 mg/mL)
Solubility ([1]; DMSO): 100 mM (≈ 61.2 mg/mL)
125I-CYP binding (% of maximal) (V133F mutant murine β2AR; log[ISO] -5.69897 M): 2.898% and 2.7378% and 2.508% and 2.41%
125I-CYP binding (% of maximal) (V133F mutant murine β2AR; log[ISO] -6.30103 M): 7.927% and 6.9353% and 6.15% and 6.231%
125I-CYP binding (% of maximal) (WT murine β2AR; log[ISO] -4.49485 M): 1.8839% and 1.834% and 1.807% and 2.135%
125I-CYP binding (% of maximal) (WT murine β2AR; log[ISO] -5.09691 M): 4.237% and 3.492% and 3.782% and 5.55%
SMILES: COc1ccc(Sc2ccc(S(=O)(=O)N(C)C(C)C)cc2C(=O)N[C@H](CC(N)=O)Cc2ccc(C(C)(C)C)cc2)cc1 [Cmpd-6]
cAMP level (% of ISO-stimulated maximal response) (murine WT β2AR; Cmpd-6 at 5 μM, no orthosteric agonist, Murine WT): 25.8782% and 38.8997% and 33.0059% and 37.3496%
cAMP, constitutive activity of overexpressed β2AR (Figure 4C) (murine WT β2AR; Species of β2AR: Murine): 25.8782 and 38.8997 and 33.0059 and 37.3496
cAMP, constitutive activity of overexpressed β2AR (Figure 4C) (guinea pig β2AR; Species of β2AR: Guinea pig): 48.9693 and 55.2023 and 45.6589 and 55.6328
PAM activity in cAMP production induced by constitutive activity of overexpressed guinea pig β2AR (guinea pig β2AR; no orthosteric agonist, 20 minutes): equivalent to what we observed with the overexpressed human receptor
125I-CYP binding (% of maximal) (V133F mutant murine β2AR; log[ISO] -4 M): 0.3208% and 0.5206% and 0.2622% and 0.2602%
125I-CYP binding (% of maximal) (V133F mutant murine β2AR; log[ISO] -4.49485 M): 0.9301% and 1.21% and 0.9752% and 0.9507%
125I-CYP binding (% of maximal) (V133F mutant murine β2AR; log[ISO] -5.09691 M): 1.3005% and 2.025% and 1.333% and 1.6451%
125I-CYP binding (% of maximal) (V133F mutant murine β2AR; log[ISO] -6.90309 M): 15.2419% and 14.4367% and 12.7613% and 13.8675%
125I-CYP binding (% of maximal) (V133F mutant murine β2AR; log[ISO] -7.50515 M): 33.0019% and 29.7875% and 27.3642% and 30.2603%
125I-CYP binding (% of maximal) (V133F mutant murine β2AR; log[ISO] -8.10721 M): 56.9542% and 53.726% and 49.4673% and 52.7312%
125I-CYP binding (% of maximal) (V133F mutant murine β2AR; log[ISO] -8.70927 M): 79.9915% and 78.4975% and 76.4167% and 78.5935%
125I-CYP binding (% of maximal) (V133F mutant murine β2AR; log[ISO] -9.31133 M): 94.8693% and 96.2982% and 94.9618% and 94.6481%
125I-CYP binding (% of maximal) (V133F mutant murine β2AR; log[ISO] -9.91339 M): 100.835% and 99.7406% and 98.19% and 100.221%
125I-CYP binding (% of maximal) (V133F mutant murine β2AR; no ISO competitor): 103.118% and 101.321% and 102.31% and 102.083%
Effect on albuterol-mediated bronchodilation (C57BL/6J naive mice [2]): no enhancing effect
cAMP level (% of ISO-stimulated maximal response) (murine V133F mutant β2AR): 45.8463% and 58.5082% and 46.5958% and 56.3694%
Bronchoprotective effect against methacholine-induced airway resistance (C57BL/6J naive mice [3]; Cmpd-6 10 mg/kg i.v. 10 minutes before methacholine): no bronchoprotective effect
Newtonian resistance (Rn) (C57BL/6J naive mice [3]; Mch 0 μg/kg): 0.362 and 0.310 and 0.287 and 0.300 and 0.311
Newtonian resistance (Rn) (C57BL/6J naive mice [3]; Mch 25 μg/kg): 0.550 and 0.482 and 0.346 and 0.471 and 0.465
Newtonian resistance (Rn) (C57BL/6J naive mice [3]; Mch 50 μg/kg): 0.728 and 0.671 and 0.387 and 0.670 and 0.609
Newtonian resistance (Rn) (C57BL/6J naive mice [3]; Mch 100 μg/kg): 0.886 and 0.904 and 0.565 and 0.976 and 0.931
Newtonian resistance (Rn) (C57BL/6J naive mice [3]; Mch 200 μg/kg): 1.570 and 1.261 and 0.919 and 1.518 and 1.725
Newtonian resistance (Rn) (C57BL/6J naive mice [3]; Mch 400 μg/kg): 1.986 and 1.405 and 1.093 and 1.461 and 1.642
125I-CYP binding (% of maximal) (WT murine β2AR; log[ISO] -4 M): 0.36% and 0.2162% and 0.04816% and -0.00042%
125I-CYP binding (% of maximal) (WT murine β2AR; log[ISO] -5.69897 M): 11.5444% and 11.0871% and 11.3959% and 13.7676%
125I-CYP binding (% of maximal) (WT murine β2AR; log[ISO] -6.30103 M): 26.4647% and 27.054% and 29.2061% and 34.2195%
125I-CYP binding (% of maximal) (WT murine β2AR; log[ISO] -6.90309 M): 53.3668% and 53.0846% and 55.6007% and 58.7138%
125I-CYP binding (% of maximal) (WT murine β2AR; log[ISO] -7.50515 M): 77.7987% and 78.0629% and 80.5466% and 83.0218%
125I-CYP binding (% of maximal) (WT murine β2AR; log[ISO] -8.10721 M): 94.1342% and 94.186% and 93.5984% and 92.8613%
125I-CYP binding (% of maximal) (WT murine β2AR; log[ISO] -8.70927 M): 97.914% and 99.3549% and 97.9296% and 99.6433%
125I-CYP binding (% of maximal) (WT murine β2AR; log[ISO] -9.31133 M): 100.454% and 99.5549% and 102.315% and 101.138%
125I-CYP binding (% of maximal) (WT murine β2AR; log[ISO] -9.91339 M): 102.683% and 102.302% and 101.203% and 102.316%
125I-CYP binding (% of maximal) (WT murine β2AR; no ISO competitor): 100.129% and 100.082% and 100.868% and 101.552%
